In patent US7893048B2, “2-azetidinone derivatives as cholesterol absorption inhibitors for the treatment of hyperlipidaemic conditions” (AstraZeneca AB, priority 2005, dated 2011) one finds Papp and inhibition data, which are given here for three compounds.

A short description of data set [1]: Absorption in a Caco-2 cells model. It counts as in vitro ADME. Conditions: human. The procedure:
Absorption of the compounds of formula (I) was tested in a Caco-2 cells model (Gastroenterology 1989, 96, 736): […]

The test system of data set [2] is 14C-cholesterol absorption. The data set is described as follows: In vivo testing of cholesterol absorption inhibitors (A). The conditions noted are these: Mus musculus, po; 0.2 μmol/kg by gavage, procedure A, C57BL/6 female mice. Here is the method: In Vivo Testing of Cholesterol Absorption Inhibitors (A)
C57BL/6 female mice were maintained on regular chow diet and housed in individual cages to collect faeces. Mice were fasted for 3 hours and then gavaged with vehicle or compound. Half an hour later the mice were gavaged with radiolabelled cholesterol. Six hours after the ^14C-cholesterol gavage blood samples were taken via the tail and plasma prepared to determine how much cholesterol were absorbed. 24 hours after the gavage of ^14C-cholesterol the mice were bled and plasma were prepared for analysis. Faeces were collected for 24 hours to assess absorption efficiency.

As to `O=C(COc1ccc([C@@H]2[C@@H](SCC(O)c3ccc4c(c3)CCO4)C(=O)N2c2ccc(F)cc2)cc1)NCC(=O)N[C@H](CC1CCCCC1)C(=O)O` (stereo partly drawn) [Example 1, N-({4-[(2R,3R)-3-{[2-(2,3-dihydro-1-benzofuran-5-yl)-2-hydroxyethyl]thio}-1-(4-fluorophenyl)-4-oxoazetidin-2-yl]phenoxy}acetyl)glycyl-3-cyclohexyl-D-alanine], the Papp (usually a coefficient for how fast a substance crosses the barrier) in data set [1] was determined as 0.05 ×10⁻⁶ cm/s.
Regarding `NCCCC[C@@H](NC(=O)CNC(=O)COc1ccc([C@@H]2[C@@H](SCC(O)c3ccc4c(c3)CCO4)C(=O)N2c2ccc(F)cc2)cc1)C(=O)O` (stereo partly drawn) [Example 3, N-({4-[(2R,3R)-3-{[2-(2,3-dihydro-1-benzofuran-5-yl)-2-hydroxyethyl]thio}-1-(4-fluorophenyl)-4-oxoazetidin-2-yl]phenoxy}acetyl)glycyl-D-lysine], the inhibition (as a rule, the change of the read-out against control, counted positive when it falls) at 0.2 µmol/kg in data set [2] turned out to be 59%.
`CC(C)(C)[C@@H](NC(=O)CNC(=O)COc1ccc([C@@H]2[C@@H](SCC(O)c3ccc4c(c3)CCO4)C(=O)N2c2ccc(F)cc2)cc1)C(=O)O` (stereo partly drawn) [Example 4, N-({4-[(2R,3R)-3-{[2-(2,3-dihydro-1-benzofuran-5-yl)-2-hydroxyethyl]thio}-1-(4-fluorophenyl)-4-oxoazetidin-2-yl]phenoxy}acetyl)glycyl-3-methyl-D-valine] registered an inhibition at 0.2 µmol/kg in data set [2] of 53%.
